According to patent publication US20100068747A1, “Generic Assay for Monitoring Endocytosis” (Evotec Technologies GmbH, priority 2005, published 2010):
Entries after “also recorded” stand apart in the source; their conditions may differ.

Legend:
U2OS/ETAR-GFP cells [1] = assay: Lectin labeling of fixed cells, U2OS/ETAR-GFP; format: cell-based, human; conditions: TRITC-lectin 10 nM and 20 nM
Description: (§1) Lectin labeling of fixed cells was conducted as follows: To detach confluent cells in order to prepare experiments for internalization studies, cells were always treated with EDTA solution instead of trypsin solution. For all seeding, washing, and labeling steps in 96-well plates a working volume of 100 μl per well was assessed. Cells were seeded out into a 96-well plate at different concentrations. U2OS/ETAR-GFP suspensions were adjusted to yield 2*10^4 cells/well, both of the CHO cell lines must be at 2.5*10^4 cells/well. Cells became confluent after 24 hours of incubation. In the following, they were washed with phosphate buffered saline (PBS) and fixed with 3% PFA for 20 minutes at RT. Then, cells were washed again with PBS and incubated in 10 nM and 20 nM solutions of each TRITC-lectin candidate in PBS, respectively. Again, cells were washed with PBS to remove excess lectin, and wells were refilled with PBS for analysis. For specificity controls, lectin solutions were incubated for 30 minutes prior to the application with an excess of the monosaccharide that represents the respective glyco-epitope.
(§2) The following microscopy and image analysis techniques were employed. When utilizing the epifluorescence microscope magnifications were adjusted according to the purpose of observation, e.g. single cell vs. cell collective. Concerning the filters U-MNU was used for Hoechst, U-MSWB for GFP, and U-N41007 for TRITC detection. Hoechst images were taken at 50 ms exposure time, GFP images at 100 to 200 ms and TRITC images needed 500 to 1000 ms. Overlay images were assembled with AnalySIS and tuned in color intensity to obtain the desired color contrast. Images taken to compare two experimental conditions, e.g. control vs. stimulus, featured identical exposure parameters. If possible, well areas were chosen that reflect similar states of confluence. Utilizing the Opera confocal fluorescence imager, the instrument was calibrated running standard methods for skew cropping (spatial camera alignments) and camera intensity normalization.

U2OS/ETAR-GFP cells [2] = assay: Lectin labeling of live cells, U2OS/ETAR-GFP; format: cell-based, human; conditions: TRITC-lectin, 10 nM at maximum
Description: (§3) Lectin labeling of live cells was conducted as follows: Cells were seeded as described above. After 24 hours cells were washed once with PBS and incubated in the incubator for another 2 hours in the respective standard medium without serum supplement to deprive them of serum factor mediated stimuli. This step was termed starvation period. Subsequently, cells were washed gently with PBS and incubated with 37° C. tempered assay medium comprised of Hank's Balanced Salt Solution (HBSS) pH 7.4, containing 20 mM HEPES and 30 mM D-glucose. The plate was left at RT for 30 minutes to slowly level its temperature and, thus, avoid capturing of temperature drop induced membrane dynamics. This period was termed leveling period. Then, assay medium was withdrawn and wells refilled with TRITC-lectin solutions at RT to start cell labeling. Several lectin concentrations in the low nano-molar range were tested. Molar concentrations were calculated from the data provided by Vector Labs. The plate was placed on a rotating shaker at low revolutions for 10 minutes while incubating. The start of the lectin incubation is referred to as assay starting point with t=0 min. After the 10 min incubation period the cells were gently washed with PBS and wells refilled with assay buffer at RT. Instantly thereafter, fluorescence signals were monitored predominately using the epifluorescence microscope.
as §2

CHO/PAR-2 cells [3] = assay: Lectin labeling of live cells, CHO/PAR-2; format: cell-based; conditions: TRITC-lectin, 10 nM at maximum
Description: as §3, §2

CHO/ETAR cells [4] = assay: Lectin labeling of live cells, CHO/ETAR; format: cell-based; conditions: TRITC-lectin, 10 nM at maximum
Description: as §3, §2

CHO/PAR-2 cells [5] = assay: Lectin labeling of fixed cells, CHO/PAR-2; format: cell-based; conditions: TRITC-lectin 10 nM and 20 nM
Description: as §1, §2

CHO/ETAR cells [6] = assay: Lectin labeling of fixed cells, CHO/ETAR; format: cell-based; conditions: TRITC-lectin 10 nM and 20 nM
Description: as §1, §2

U2OS cells = assay: Specificity control with competing monosaccharide on fixed cells; format: cell-based, human; conditions: excess of inhibitory monosaccharide
Description: as §1

live cells = assay: Signal transformation on live cells after labeling with fluorescent lectins (all cell lines); format: cell-based; conditions: all experiments
Description: as §3, with “The plate was placed on a rotating shaker at low revolutions for 10 minutes while incubating. The start of the lectin incubation is referred to as assay starting point with t=0 min. After the 10 min incubation period the cells were gently washed with PBS and wells refilled with assay buffer at RT.” left out
The following microscopy and image analysis techniques were employed. […] Utilizing the Opera confocal fluorescence imager, the instrument was calibrated running standard methods for skew cropping (spatial camera alignments) and camera intensity normalization.

U2OS/ETAR-GFP cells [7] = assay: Internalization pathway analysis in U2OS/ETAR-GFP cells; format: cell-based, human
Description: With regard to the internalization pathway analysis in U2OS/ETAR-GFP cells, RDE was inhibited by including 5 mM β-methyl-cyclodextrin (CD) in the leveling medium. The following labeling and chase incubations were conducted in standard assay medium. For inhibition of clathrin mediated endocytosis cells were subjected to hypotonic shock by incubating 5 minutes at 37° C. in a 1:1 starvation medium-ddH2O mixture and then were transferred into a potassium (K^+) depleted assay medium for temperature leveling. The following labeling and chase incubations were also conducted in K^+ depleted assay medium, which was prepared by substituting sodium salts for all potassium salts in HBSS. Inhibition of both pathways was achieved by combining both methods and including 5 mM CD in the leveling medium for CLAME inhibition. For CLAME controls, 5 μg/ml Alexa Fluor 488 conjugated transferrin was included during the labeling period for all inhibited pathway scenarios. Protocol procedures were conducted as described, however, lectins were omitted in the labeling step. For lipid raft-dependent pathways there were no control markers available.

[8] = tested on: CHO/ETAR cell membrane protein; assay: Lectin blotting of ETAR membrane sample; format: binding; conditions: biotinylated lectin 5 μg/ml
Description: (§4) Membrane preparation was conducted as follows: Cells were cultured in five T175 flasks until confluency. Confluent cells were detached by applying 3 ml of EDTA solution onto the PBS washed cells. Following a 20-minute incubation at 37° C. and 5% CO2, cells were resuspended in 12 ml of starvation medium (standard medium without FCS), counted, and centrifuged in a Heraeus Megafuge 1.0R at 133 rcf for 4 minutes. All subsequent steps were carried out on ice and with ice cold solutions. After unification of all pellet fractions, hypotonic lysis buffer was added to the cells at a ratio of 1 ml per 5*10^7 cells. Additionally, protease inhibitor cocktail was added to 50 μl per 5*10^7 cells. Cells were homogenized with 30 strokes in a 5 ml potter on ice, centrifuged at 4° C. and 917 rcf for 10 minutes, and the supernatant was stored in an ultracentrifuge tube on ice. The pellet fraction was homogenized and centrifuged once again as described above. The supernatants of both procedures were unified and centrifuged at 4° C. and 100,000 rcf for 45 minutes in a Sorvall ultra-centrifuge. The supernatant of this centrifugation procedure was withdrawn and the pellet dissolved in 0.5 ml or 1.0 ml modified SDS PAGE loading buffer containing Tris-HCl, SDS, glycerol, but no β-mercapto-ethanol or dyes and stored in small aliquots of 50 μl at −20° C.
SDS-Page of membrane samples was conducted as follows: Discontinuous 12% polyacrylamide gels were prepared according to a standard protocol. Broad range marker and 25 μg membrane protein were mixed 1:1 with loading buffer and loaded five times onto a mini gel in alternating order. The gels were run at U=100 V for the first 20 minutes. Subsequently, voltage was increased to U=150 V. The run was aborted as soon as the pyronin G band reached the end of the gel. For coomassie staining, gels were put in coomassie staining solution on a shaker at low revolutions for 45 min. The staining solution was removed and the gel incubated with destaining solution for one to two hours, exchanging the solution several times until the desired contrast was obtained. […]

U2OS/ETAR-GFP cells [9] = assay: Effect of lectin incubation on morphology of live cells; format: cell-based, human; conditions: 5 nM, 10 nM, and 20 nM versus the control
Description: as §3

U2OS/ETAR-GFP cells [10] = assay: Serum supplements (insulin) in live cell labeling; format: cell-based, human; conditions: 20 nM in assay medium in labeling and chase incubations
Description: For serum supplements in live cell labeling, starvation was carried out in Opti-MEM medium (11058; Gibco—Invitrogen, Karlsruhe, Germany). The following labeling and chase incubations were conducted in assay medium with a 20 nM insulin supplement.

[11] = tested on: CHO/PAR-2 cell membrane protein; assay: Lectin blotting of PAR-2 membrane sample; format: binding; conditions: biotinylated lectin 5 μg/ml
Description: as §4
SDS-Page of membrane samples was conducted as follows: Discontinuous 12% polyacrylamide gels were prepared according to a standard protocol. Broad range marker and 25 μg membrane protein were mixed 1:1 with loading buffer and loaded five times onto a mini gel in alternating order. The gels were run at U=100 V for the first 20 minutes. Subsequently, voltage was increased to U=150 V. The run was aborted as soon as the pyronin G band reached the end of the gel. For coomassie staining, gels were put in coomassie staining solution on a shaker at low revolutions for 45 min. The staining solution was removed and the gel incubated with destaining solution for one to two hours, exchanging the solution several times until the desired contrast was obtained.
Blotting of membrane samples was conducted as follows: For blotting, 3 mm packs of Whatman papers were extensively soaked in one of the diverging blotting buffers, AB I, AB II, and CB, and a pile was assembled in a semi-dry Trans-Blot 3D system from Bio-Rad as depicted in the sketch of FIG. 2. Hybond nitrocellulose membrane was submerged in AB II prior to assembly. To smooth out any air bubbles from the pile, a Pasteur pipette was rolled several times over the top layer. The apparatus was closed and ran at U=25 V for 45 minutes. Then, the pile was disassembled, the membrane submerged in Ponceau S solution and gently swayed for 2 minutes. For destaining, ddH2O was substituted for the staining solution, and the membrane was briefly rinsed twice. After drying under ambient conditions, the marker bands were marked with a ballpoint-pen. The membrane was cut into slices each displaying one marker and one sample lane.
Probing of membrane samples was conducted as follows: For classical western blotting, membranes were blocked in PBS containing 5% low fat dried milk powder. They were placed on a rotating shaker at low revolutions for 1 hour. Subsequently, membranes were sealed in plastic bags with blocking solution additionally containing 1 μg/ml anti-PAR-2 antibody (1:400) or 0.5 μg/ml of anti-ETAR antibody (1:500), depending on the respective recombinant cell type used for the sample. […]

Row | Substance | Staining of U2OS/ETAR-GFP (U2OS/ETAR-GFP cells [1]) | Live cell staining of U2OS/ETAR-GFP (U2OS/ETAR-GFP cells [2]) | Live cell staining of CHO/PAR-2 (CHO/PAR-2 cells [3]) | Live cell staining of CHO/ETAR (CHO/ETAR cells [4]) | Staining of CHO/PAR-2 (CHO/PAR-2 cells [5]) | Staining of CHO/ETAR (CHO/ETAR cells [6]) | fluorescent signal in the presence of the competing monosaccharide (U2OS cells) | other results
1 | Phaseolus vulgaris leucoagglutin [PHA-L] | extensive fluorescence was observed at the cell surface | spot formation | strong signal contrast between the relatively unstained nucleus area and its fluorescing perimeter; also recorded: spot formation | cell surface, sequestered | signals clearly marking individual cells; also recorded: cell surface | cell surface | reduced | stability of fluorescence signal over time (live cells): fairly stable signals
2 | Alexa-Fluor® 488-transferrin: Human holo-transferrin-Alexa Fluor 488 conjugate, standard marker of the clathrin-mediated pathway |  |  |  |  |  |  |  | signals of clathrin-mediated pathway marker (U2OS/ETAR-GFP cells [7]; 5 μg/ml, all conditions but inhibition of the clathrin-dependent pathway): detected in the perinuclear region
3 | Phaseolus vulgaris erythroagglutin [PHA-E] | extensive fluorescence was observed at the cell surface | spot formation | strong signal contrast between the relatively unstained nucleus area and its fluorescing perimeter; also recorded: spot formation | cell surface, sequestered | signals clearly marking individual cells; also recorded: cell surface | cell surface | reduced | stability of fluorescence signal over time (live cells): fairly stable signals
4 | β-methyl-cyclodextrin |  |  |  |  |  |  |  | spot formation of sWGA signal under inhibition of raft-dependent pathways (U2OS/ETAR-GFP cells [7]; 5 mM in leveling medium, cholesterol extraction): did not impede the typical spot formation
5 | Pisum sativum agglutin [PSA] | extensive fluorescence was observed at the cell surface | spot formation |  |  | reduced intensity with a high background; also recorded: weak cell surface |  |  | band at the same height as in the western (47 kDa, anti-ETAR) [8]: could clearly be detected
6 | Sophora japonica agglutin [SJA] | only several little, spot-like signals on each cell; also recorded: weak spots on cell | medium sized, scattered spots |  |  |  |  | reduced | effect on U2OS/ETAR-GFP cells, phase contrast (U2OS/ETAR-GFP cells [9]): Irritating effect
7 | porcine insulin |  |  |  |  |  |  |  | effect on spot formation of sWGA signal (U2OS/ETAR-GFP cells [10]): complete suppression of spot formation
8 | Lens culinaris agglutin [LCA] | extensive fluorescence was observed at the cell surface | spot formation | spot formation | fluorescence accumulation in the form of tiny points around the cell boundaries; also recorded: cell boundary, points | reduced intensity with a high background; also recorded: weak cell surface | cell surface |  | band at the same height as the western band (55 kDa, anti-PAR-2) [11]: one of them matching the height of the western band; bands detected above 35 kDa ([11]; exposure one to five minutes): four
9 | Griffonia (Bandeiraea) simplicifolia lectin [GSL-I] | very faint signal covering only some single cells; also recorded: weak single cell | signal points were significantly smaller and less; also recorded: small, scattered |  |  | reduced intensity with a high background; also recorded: weak cell surface |  |  | 
